Results from US12377069B2, “Compounds, compositions, methods of using, and methods for preparing compounds” (UNIVERSITY OF LOUISVILLE RESEARCH FOUNDATION, INC., priority 2018, dated 2025).

Legend:
HT29 cells = assay: AhR/Cyp1A1 siRNA knockdown and Cyp1A1 CRISPR/Cas9 deletion; assay type: cell-based, human; details: 24 h; for Cldn4 or NQO1 in Cyp1A1 deleted cells: CRISPR/Cas9, 50 μM; for Cldn4 induction in AhR or Cyp1A1 knockdown cells: siRNA, 50 μM
Experimental: Small interfering RNA (siRNA) mediated knockdown experiment: The AhR siRNA (SR300136) and Cyp1A1 siRNA (SR301093) was purchased from Origene. For knockdown experiments, HT29 cells (0.5×10^6 cells/well) were plated in 6 well plate and grown for 24 hr. The AhR, Cyp1A1 and control-siRNA was transfected into HT29 cells using Lipofectamine® RNAiMAX reagent (ThermoFisher Scientific) as per instruction given. After 24 hr of transfections, cell were induced with vehicle (0.01% DMSO), UroA (50 μM) and UAS03 (50 μM) for 24 hr. After treatment with inducers, cells were lysed using RIPA buffer and total protein was used to analyse the expression of AhR, Cyp1A1 and cldn4 by western blot.
Cyp1A1 deletion by CRISPR/Cas9 method: HT29 cells (1.5×10^5) were plated in 6-well in antibiotic free standard growth medium 24 h prior to transfection. At 60% confluency cells, cell were co-transfected with 2 μg each of CRISPR/Cas9 KO Plasmid (sc-400511-KO-2; Santa cruz) and HDR Plasmid (sc-400511-HDR-2; Santa cruz) using UltraCruz® Transfection Reagent (sc-395739; Santa Cruz). Medium was replaced with selective medium (containing 4 μg/mL puromycin) 96 hr post transfection. Transfection was confirmed with fluorescence microscopy and western blot (CYP1A1). The double positive cells for GFP and RFP were sorted using MoFlo XDP sorting instrument (Beckman Coulter). The deletion of Cyp1A1 in these sorted was confirmed by Western blots. These cells were then plated in 6-well plate for in standard medium for evaluating the effect of UroA/UAS03 on Cldn4 expression. After 24 hr of UroA/UAS03 treatment cells were harvested for protein and Cldn4 expression was investigated along with normal HT29 cells.

AhR = AhR nuclear translocation; assay type: cell-based, human; details: HT29, 50 μM
Experimental: Confocal Imaging: HT29 or CaCo2 or BMDM cells (50,000 cells/well) were plated on to 8-well chambered slides (154534PK; ThermoFisher Scientific) allowed them to grow overnight. The cells were induced with vehicle (0.01% DMSO) or UroA (50 μM) or UAS03 (50 μM) for desired time points and fixed with cold methonol. The AhR or Nrf2 or Cldn4 stained with respective antibodies (1:200 dilution) followed by fluorecently labelled (Alexa flour 594 for AhR and Alexa flour 488 for Nrf2 and Cldn4) secondary ab (1:500 dilution; ThermoFisher Scientific). The nucleus was stained with DAPI (Sigma Aldrich). The confocal images were captured using Nikon AIR confocal microscope using 60× magnification lense with appropriate laser channels.

Cyp1A1 [1] = assay: Cyp1A1 enzyme activity in colon and liver microsomes of treated mice; assay type: in vivo, mouse; details: 1 week; for Cyp1A1 activity in colon tissues compared to BNF and FICZ treated mice: UroA/UAS03 oral 20 mg/kg/day, FICZ i.p.; for Cyp1A1 activity increase in colons: i.p., UroA/UAS03 5 mg/kg/day, FICZ 1 μg/mouse/day; for Cyp1A1 activity in colon and liver, AhR^−/− mice / Cyp1A1 activity in colon and liver, wild type mice: oral 20 mg/kg, EROD
Experimental: Measurements of Cyp1A1 enzyme activity (Ex vivo): Mice were treated with Vehicle or UroA or UAS03, BNF or FICZ daily for one week at indicated concentration either through oral or i.p. route. After one week, mice were euthanized and the colon and liver tissues were dissected. Microsomes from these tissues were prepared using the following procedure (SINGH et al., (2013) “Evaluation of memory enhancing clinically available standardized extract of Bacopa monniera on P-glycoprotein and cytochrome P450 3A in Sprague-Dawley rats” PloS one, Vol. 8, Article e72517). For hepatic microsomes, liver was first perfused with 0.9% sodium chloride solution and excised out. Adhering blood and saline was removed by blotting on tissue paper and tissue was homogenized in tissue homogenization buffer (50 mM Tris-HCl, pH 7.4 with 250 mM sucrose). Homogenate was centrifuged at 10,000×g for 30 minutes at 4° C. supernatant obtained was further centrifuged at 105,000×g for 60 minutes at 4° C. The pellet was washed with homogenization buffer and centrifuged again at 105,000×g for 60 minutes at 4° C. The pellet was suspended in homogenization buffer and used for protein and CYP assay. For intestinal microsome preparation, intestine was removed and washed with 0.9% sodium chloride. The intestine was longitudinally cut open to expose mucosal layer and mucosa was scrapped with help of glass slide. The scraped tissue was collected in homogenization buffer (50 mM Tris-HCl buffer containing glycerol (20% v/v), protease inhibitor (1%) and heparin (3 U/ml)). This suspended mucosa was homogenized and centrifuged at 10,000×g for 20 minutes at 4° C. Supernatant obtained was further centrifuged at 105,000×g for 60 minutes at 4° C. The pellet was washed with buffer and centrifuged again at 105,000×g for 60 minutes at 4° C. The pellet was suspended homogenization buffer and used for protein and CYP enzymes assays.
Ethoxyresorufin-O-deethylase (EROD) assay: The microsomal proteins (0.5 mg) were mixed with 200 μL Tris buffer (0.1 M, pH 7.4) containing ethoxyresorufin (0.01 mM). To start reaction, NADPH (0.1 mM) was added and incubated at 37° C. for 10 min. After 10 min, reaction was terminated by adding equal volume of acetonitrile and reaction mixture was centrifuged at 13000×g for 10 min at 4° C. Supernatant was used to determine resorufin by measuring fluorescence (Ex. 530 nm, Em. 580 nm). Pure resorufin (Sigma Aldrich) was used to generate standard curve.
P450-Glo Cyp1A1 luminiscence assay: The above microsomes (20 μg) were used for P450-Glo Cyp1A1 luminiscence assays as per manufacturer's instructions.

Cyp1A1 [2] = assay: Cyp1A1 expression and enzyme activity in vitro (P450-Glo, EROD); assay type: cell-based, human; details: for Cyp1A1 enzyme activity in colon epithelial cells: HT29, 24 h, P450-Glo and EROD
Experimental: Measurment of Cyp1A1 enzyme activities in vitro. EROD assay: HT-29 cells (15,000 cells/well) treated with vehicle, UroA and UAS03 (24 hrs), were rinsed with HBSS buffer, and then fresh HBSS buffer was added along with 5 μM of 7-ethoxyresorufin. Cells were further incubated at 37° C. for 1 h. After the incubation time, fluorescence (Exc. 530 nm, Em. 580 nm) was measured and product (resorufin) formed was calculated from calibration standard and normalized with protein concentration.
P450-Glo Cyp1A1 luminiscence assay: HT29 cells (25,000 cells/well) were plated in 48 well plate. Cell were then treated with UroA (0.1, 1, 10, 25 and 50 μM) or UAS03 (0.1, 1, 10, 25 and 50 μM) or FICZ (0.1, 1, 10, 25 and 50 nM) for 24 hrs. After treatment, cells were washed to remove any residual drugs, and fresh medium containing Cyp1A1 substrate (as per protocol provided with kit Cat. #V8751; Promega) for 3 hr. After incubation, 25 μl of culture medium was removed from each well and transferred to a 96-well white opaque plate and 25 μl of luciferin detection reagent was added to initiate the luminescence reaction and plate was incubated at room temperature for 20 min. After incubation, luminescence was recorded in luminometer. The data reported as fold change over vehicle treatment.

Row | SMILES | Cldn4 or NQO1 in Cyp1A1 deleted cells (HT29 cells) | Cldn4 induction in AhR or Cyp1A1 knockdown cells (HT29 cells) | nuclear translocation of AhR (AhR) | Cyp1A1 activity in colon tissues compared to BNF and FICZ treated mice (Cyp1A1 [1]) | Cyp1A1 activity increase in colons (Cyp1A1 [1]) | Cyp1A1 activity in colon and liver, AhR^−/− mice (Cyp1A1 [1]) | Cyp1A1 activity in colon and liver, wild type mice (Cyp1A1 [1]) | Cyp1A1 enzyme activity in colon epithelial cells (Cyp1A1 [2]) | Cyp1A1 expression (RNA-Seq and real time PCR) (Cyp1A1 [2]; HT29, 50 μM, 24 h)
1 | Oc1ccc2c(c1)COc1cc(O)ccc1-2 [UAS03, 6H-benzo[c]chromene-3,8-diol] | did not appear to upregulate | does not appear to induce Cldn4 | induced the nuclear translocation | relatively more Cyp1A1 activity in colon tissues | ~3 fold | but not in AhR^−/− mice | activated Cyp1A1 activity | induced Cyp1A1 activity | –
2 | O=c1oc2cc(O)ccc2c2ccc(O)cc12 [UroA, 3,8-dihydroxy-6H-dibenzo[b,d]pyran-6-one] | did not appear to upregulate | does not appear to induce Cldn4 | induced the nuclear translocation | relatively more Cyp1A1 activity in colon tissues | ~3 fold | but not in AhR^−/− mice | activated Cyp1A1 activity | induced Cyp1A1 activity | upregulated
